Where “and” joins values, the source holds several entries; their conditions need not be identical. Identical values can stand only once. Where only a bound is given, the exact number is not on record here.

A word on the Ki: it is the dissociation constant of the complex between target and ligand, obtained from inhibition or displacement. Higher therefore signals a looser hold on the target. One may read the IC50 as the midpoint of a concentration-inhibition curve. A low value points to inhibition by little substance.

Data set [1] has as its target T1, β1-AR (Homo sapiens, UniProt P08588). The data set can be described thus: [3H]DHA radioligand displacement on membranes of HEK293T cells expressing β1-AR. The following applies: for fold Ki trans vs PSScis at β1-AR: fold difference between Ki of trans and Ki at PSScis; for Active state at β1-AR: isomer state with higher affinity. A general note: In a radioligand displacement assay an active substance lowers the binding of a labelled ligand.
Procedure: (§5) Membranes of HEK293T-cells transiently expressing the receptor of interest were co-incubated with the tritiated β1/β2-AR antagonist dihydroalprenolol ([^3H]DHA, Figure S2 depicts saturation binding experiments), together with increasing concentrations of the competing unlabeled ligand.
(§6) Two million HEK293T cells were seeded in a 10cm^2 dish and were transiently transfected the next day with 1 μg human β1-AR or the β2-AR plasmid DNA, 4 μg empty pcDEF3 plasmid DNA and 30 μg linear 25 kDa polyethyleneimine (PEI; Polysciences Warrington, USA) in a 150 mM NaCl solution. […] Two days after transfection, cells were resuspended and washed (3 times) with PBS and pelleted by centrifugation steps at 1500 g. After the final centrifugation step, cell pellets were reconstituted into ice-cold Tris-HCl buffer (15 mM, supplemented with 0.3 mM EDTA and 2 mM MgCl2 at pH7.4) and dounce-homogenised by plunging the pestle 10 times with 1,500 rpm (Tamson, the Netherlands). The homogenates were frozen and thawed twice using liquid nitrogen, after which the membranes were isolated using an ultra-centrifuge L70 at 40,000 g (Beckman Coulter, USA). Cell pellets were then washed and reconstituted in ice-cold 20 mM Tris-HCl buffer supplemented with 250 mM Sucrose at pH 7.4. Finally, the membrane samples where homogenized using a 23-gauge needle, snap-frozen with liquid nitrogen and stored until further experimentation at −80 °C. The protein content was determined using a BCA protein assay kit (Thermo Scientific, USA).
(§7) On the day of the experiment 0.25–0.5 μg membranes expressing either the β1-AR or the β2-AR, were co-incubated with [^3H]DHA (Perkin Elmer, USA) and increasing concentrations unlabeled ligand in HBSS buffer (Thermo Scientific, with Ca^2+ and Mg^2+) supplemented with 0.1% BSA for 1 h at 25 °C under gentile agitation. Either a 4 nM or 1 nM concentration of [^3H]DHA was used in combination with membranes expressing either the β1-AR or β2-AR, respectively. Binding reactions were terminated by filtration over a PEI coated GF/C filter (Perkin Elmer) using ice-cold 50 mM Tris-HCl buffer with 500 mM NaCl at pH 7.4. GF/C plates were dried at 52 °C and filter bound [^3H]DHA was quantified by adding 25 μL/well Microscint-O scintillation liquid and counting luminescence using the Wallac Microbeta counter, as described before.
(§8) IC50 values were determined by fitting the concentration-dependent displacement of [^3H]DHA by unlabeled ligands, with a three-parameter sigmoidal model in GraphPad Prism. […] Competition binding graphs represent the pooled data of ≥3 experiments, normalized to the fitted top and bottom of the reference sigmoidal displacement curve of unlabeled DHA.

Data set [2] is described as follows: Cis-to-trans thermal relaxation, Arrhenius extrapolation. Type of data set: physicochemical. Particulars: PSScis sample 25 μM in HBSS buffer with 1% DMSO; Arrhenius extrapolation to 20 °C. How it is done:
(§1) Solubility in buffer was explored for all compounds using nephelometry ([Bevan and Lloyd, 2000]) and these studies indicate good solubility of all azobenzene photoswiches up to at least 100 μM (Figure S1). […] For all compounds, 360 nm induces a large change in absorbance spectrum compared with the non-illuminated (dark) compounds (Table 1, Figure 2A, and S1), indicating photoisomerization to the cis-isomer. The absorbance peak (λmax) of Opto-prop-1-3 ranged between 319 and 347 nm for the trans-isomers and between 423 and 429 for the cis-isomers (Table 1), as is typical for azobenzene compounds ([Hauwert et al., 2018]). […] The photochemical conversions were determined by continuous illumination of the Opto-prop compounds with near UV-light (360 ± 20 nm) as 10-mM solutions in DMSO. Based on LCMS analysis, it was observed that all compounds obtained a high level of conversion to the cis-isomer with a photostationary state (PSS) of >88 area % cis-isomer (i.e. PSScis; Table 1). Subsequent back-switching to PSStrans with 434 nm maintained 22–29 area % cis-isomer (Table 1). The thermal relaxation of the PSScis state of the photoswitchable ligands was monitored over time by measuring absorbance at 254 nm. Only minor thermal relaxation to the trans-isomer could be detected at 20°C (not shown). An estimate of the relaxation rate at 20 °C was determined using a method by Priimagi et al. ([Ahmed et al., 2017]), which was performed in Hanks’ balanced salt solution (HBSS) using increased temperatures to enhance the speed of thermal relaxation. The Opto-prop ligands are all very stable as cis-isomer after illumination, with thermal relaxation half-lives of >10 days at 20 °C (See Table 1 and Figure S1).
Cis-to-trans thermal relaxations were performed in the dark at 25 μM of the PSS360 state of the Opto-prop-1, -2 or -3 in HBSS buffer with 1% DMSO at various temperatures (60°C, 70°C and 80°C). Absorbance was repeatedly measured at 320, 320 and 347 nm for Opto-prop-1, -2 or -3, respectively, with 60 s intervals.

Data set [3] is described as follows: UV-Vis absorbance spectra. Type of data set: physicochemical. The following applies: 25 μM in HBSS buffer with 1% DMSO; for λmax cis: cis-isomer; for λmax trans: trans-isomer. The procedure:
as §1
UV-Vis spectra were obtained using a Thermo-scientific Evolution 201 PC spectrophotometer. Illumination was executed using a Sutter instruments Lambda LS with a 300 Watt full-spectrum lamp connected to a Sutter instruments Lambda 10-3 optical filter changer equipped with 360 ± 20 nm, 400 ± 5 nm, 434 ± 9 nm and 460 ± 5 nm filters. The light intensity is 0.93 mW/mm^2 using the 360 ± 20 nm filter, 0.22 mW/mm^2 using the 400 ± 5 nm filter, 0.79 mW/mm^2 for the 434 ± 9 nm filter and 0.26 mW/mm^2 for the 460 ± 5 nm filter as measured using a Thorlabs PM16-401 power meter.
For the determination of the UV-Vis spectra shown in Figure 2A, compounds (25 μM in 1% DMSO/HBSS buffer) were illuminated in Hellma Suprasil quartz 114-QS cuvettes with either a 360, 400, 434 or 460 nm filter for the indicated time. For the determination of PSScis and PSStrans states by UV spectroscopy (Figures S1D–S1F), a solution of the compound in 1% DMSO/HBSS buffer (25 μM) in a vial was illuminated to PSS cis with 360 nm (typically 4–5 min) and subsequently to PSS trans with 434 nm (typically 2–5 min). UV spectra were recorded.

Data set [4] in a line: PSScis and PSStrans by LC analysis. Type of data set: physicochemical. Particulars: for PSScis (% cis-isomer): 10 mM in DMSO after illumination with 360 nm; for PSScis (% cis-isomer) / PSStrans (% cis-isomer): LCMS area at isosbestic wavelength; for PSStrans (% cis-isomer): 10 mM in DMSO, 360 nm then 434 nm. How it is done:
as §1
For the determination of PSScis and PSStrans values by LC analysis (Table 1), a solution of the compound in DMSO (10 mM) was illuminated to PSScis with 360 nm and subsequently to PSStrans with 434 nm. PSS aliquots were withdrawn, diluted with MeCN and subjected to LCMS analysis with the corresponding isosbestic points wavelength: 278, 263 and 308 nm for Opto-prop-1-3, respectively.

Data set [5] has as its target T2, β2-AR (Homo sapiens, UniProt P07550). Description: [3H]DHA radioligand displacement on membranes of HEK293T cells expressing β2-AR. The following applies: for fold Ki trans vs PSScis at β2-AR: fold difference between Ki of trans and Ki at PSScis; for Active state at β2-AR: isomer state with higher affinity; for Ki: β2-AR; for selectivity in binding β2-AR over β1-AR: cis-isomer (PSScis).
Target sequence in this assay (P07550 whole entry): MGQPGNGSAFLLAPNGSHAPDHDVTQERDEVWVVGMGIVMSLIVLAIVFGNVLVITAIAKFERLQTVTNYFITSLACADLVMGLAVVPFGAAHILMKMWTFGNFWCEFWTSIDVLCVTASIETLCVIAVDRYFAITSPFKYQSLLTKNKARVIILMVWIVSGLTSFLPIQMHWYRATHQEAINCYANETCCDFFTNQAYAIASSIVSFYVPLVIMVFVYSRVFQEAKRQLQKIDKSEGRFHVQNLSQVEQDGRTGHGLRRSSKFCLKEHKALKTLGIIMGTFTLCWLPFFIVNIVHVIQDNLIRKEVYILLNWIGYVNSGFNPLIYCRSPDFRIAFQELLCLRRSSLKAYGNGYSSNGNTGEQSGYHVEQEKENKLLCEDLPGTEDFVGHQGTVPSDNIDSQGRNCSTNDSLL
Procedure: as §5, §6, §7, §8

The target of data set [6] is T2, β2-AR. Description: Saturation binding of [3H]dihydroalprenolol, β2-AR membranes. Further details: host or cells: HEK293T, transient; membranes. The following applies: HEK293T membranes. How it is done: (§2) Figure S2. Saturation binding of [3H]dihydroalprenolol t o the β1 and β2 adrenergic rec eptors, related to Figure 3. Increasing concentrations [3H]dihydroalprenolol were incubated with membranes of HEK293T cells transiently expressing either the β1-AR (A) or β2-AR (B). Both the radioligand concentration and bound radioligand were quantified by scintillation counting. Data represent the po o led m ean ± SD of 4 experiments. Binding affinities (pKd) of [3H]dihydroalprenolol were determined by fitting the data in each individual experiment. […]
(§3) and a Bmax value of 33 ± 19 pmol/mg at membranes expressing the β2-AR.
(§4) (1 picture or pasted object on this page, not shown here)
Target sequence in this assay (P07550 whole entry): as above

For data set [7], the target named is T1, β1-AR. The data set can be described thus: Saturation binding of [3H]dihydroalprenolol, β1-AR membranes. Also noted: host or cells: HEK293T, transient; membranes. Particulars: HEK293T membranes. How it is done:
as §2, §3, §4

The subject of data set [8] is isolated adult rat cardiomyocytes. The data set can be described thus: Contractility (sarcomere shortening) of paced isolated cardiomyocytes. The format is cell-based. Particulars: paced at 2 Hz; for effect on isoprenaline-enhanced contractility: 1 μM with 15 nM isoprenaline. How it is done:
To evaluate Opto-prop-2 in a relevant biological system with endogenous levels of the native receptor proteins, it was tested using isolated adult rat cardiomyocytes. Cardiomyocytes were paced at 2Hz, inducing contractions that were quantified by measuring the sarcomere length over time (Figure 6A). […] This enhanced contractility was attenuated by co-incubating with cis-Opto-prop-2 (magenta line) but not by trans-Opto-prop-2 (teal line) at 1 μM concentrations.
Intact adult cardiomyocytes were isolated from 3 adult wild-type Wistar rats weighing 200–250 g as described previously. ([Nollet et al., 2020]; [van Deel et al., 2017]) Briefly, rats were sedated and anesthesized by isoflurane inhalation. The heart was removed and perfused in a Langendorff setup with Liberase TM (Roche) digestive enzymes and the left ventricle was consequently cut into small pieces and resuspended in stopping buffer. This mixture was passed over a 300 μm nylon mesh filter, isolated cells in the filtrate were resuspended in buffer containing 1mM CaCl2. Cells were suspended in plating medium composed of Medium 199 (Lonza), 1% penicillin/streptomycin and 5% bovine serum and plated on a laminin coated dish (10 μg/mL, Sigma-Aldrich). The cells were incubated for 1 h at 37 °C in humidified air with 5% CO2 to let them attach to the coated dish. Afterwards, non-attached cells were removed by washing cells with pre-heated Tyrode solution (137 mM NaCl, 5.4 mM KCl, 3 mM sodium pyruvate, 5 mM HEPES, 0.57 mM MgCl2, 0.33 mM NaH2PO4, 1.0 mM CaCl2 and 5.6 mM glucose, pH 7.4 at 37 °C). Contractility measurements were performed at 37 °C using the Multi-Cell system (CytoCypher, the Netherlands). Cells were treated to vehicle (DMSO), 15 nM isoproterenol alone or in combination with 1 μM of propranolol or Opto-prop-2 (either with or without prior illumination). […]
Changes in sarcomere length were recorded with a high-speed camera and Ionoptix software (Ionoptix, Westwood MA, USA). The contractility profiles were analyzed with the automated, batch analysis software ‘Transient Analysis Tools’ (CytoCypher, Amsterdam, NL). […]

For data set [9], the target named is T2, β2-AR. The data set can be described thus: Conformational β2-AR BRET sensor in HEK293A cells. For orientation: In BRET a luciferase serves as donor, and the signal depends on an acceptor being close.
Target sequence in this assay (P07550 1-369): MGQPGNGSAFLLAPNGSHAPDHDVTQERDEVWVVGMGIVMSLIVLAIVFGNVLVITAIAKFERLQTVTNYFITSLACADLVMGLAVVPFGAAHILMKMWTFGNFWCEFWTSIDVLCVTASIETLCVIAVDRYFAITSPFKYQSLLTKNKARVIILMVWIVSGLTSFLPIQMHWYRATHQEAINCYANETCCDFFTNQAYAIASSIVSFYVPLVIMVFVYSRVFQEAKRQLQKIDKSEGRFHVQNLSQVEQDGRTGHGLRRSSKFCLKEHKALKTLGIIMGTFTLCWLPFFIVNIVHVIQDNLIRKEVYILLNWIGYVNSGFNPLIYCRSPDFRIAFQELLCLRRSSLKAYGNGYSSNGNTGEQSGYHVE
Procedure: The next day, cells were washed with HBSS and incubated with a 1/1000 stock solution of furimazine. […] Wells pre-incubated with 0.1% DMSO/HBSS control were treated with vehicle control.
Raw BRET ratios were defined as acceptor emission/donor emission.
Antagonist pKB values were calculated using the agonist potency and concentration together with the antagonist IC50 values, using the Cheng-Prusoff equation.
The mark [10] stands for this setting: pKi PSScis, β1-AR, illuminated to PSScis (360 nm) before experiment.
Where [11] appears, read: pKi trans, β1-AR, without prior illumination (trans-isomer).
Setting [12] is: pKi PSScis, illuminated to PSScis (360 nm) before experiment.
Where [13] appears, read: pKi trans, without prior illumination (trans-isomer).

T1 sequence (P08588 whole entry): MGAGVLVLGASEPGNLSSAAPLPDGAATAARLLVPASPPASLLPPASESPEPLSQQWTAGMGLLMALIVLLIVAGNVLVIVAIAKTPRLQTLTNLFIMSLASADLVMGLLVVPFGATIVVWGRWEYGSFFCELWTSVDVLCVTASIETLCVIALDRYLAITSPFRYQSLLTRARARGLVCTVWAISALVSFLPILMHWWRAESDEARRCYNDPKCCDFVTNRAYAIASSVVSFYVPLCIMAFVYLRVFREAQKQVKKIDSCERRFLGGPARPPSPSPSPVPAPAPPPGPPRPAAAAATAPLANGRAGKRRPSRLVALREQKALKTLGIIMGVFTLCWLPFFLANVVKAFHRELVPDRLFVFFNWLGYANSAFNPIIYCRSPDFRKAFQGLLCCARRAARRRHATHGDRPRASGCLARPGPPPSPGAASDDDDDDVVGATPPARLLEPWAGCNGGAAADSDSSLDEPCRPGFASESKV

For the compound `CC(C)NCC(O)COc1ccccc1/N=N/c1ccccc1` (stereo not drawn) [Opto-prop-1], the Ki at β1-AR [1] (Ki at β1-AR, trans-isomer) was under 13 nM; at β1-AR [1] (setting [10]) it was 79.4 nM; on β1-AR [1] (setting [11]), 7.94 nM; at β2-AR [5] (setting [12]), 3.16 nM; at β2-AR [5] (setting [13]), 0.794 nM. Besides, the “fold Ki trans vs PSScis at β1-AR” value on β1-AR [1] is 9 fold and 9.4 fold. On β1-AR [1], the “Active state at β1-AR” value is recorded as “trans”. In addition, the “t1/2 20°C (thermal relaxation of cis-isomer)” value in data set [2] is over 240 h. The same compound returned a λmax cis in [3] of 423 nm. Further, the λmax trans in data set [3] was determined as 321 nm. In addition, the “PSScis (% cis-isomer)” value in data set [4] amounted to 88.9 ± 1.0 % cis-isomer. Further, the “PSStrans (% cis-isomer)” value in data set [4] came to 28.8 ± 0.3 % cis-isomer. The “selectivity β2-AR over β1-AR” value on β2-AR [5] (both isomers) is listed as at least 10 fold. Moreover, the “fold Ki trans vs PSScis at β2-AR” value at β2-AR [5] was 4 fold and 4.3 fold. Further, the “Active state at β2-AR” value at β2-AR [5] is “trans”.
As to `CC(C)NCC(O)COc1ccc(/N=N/c2ccccc2)cc1` (stereo not drawn) [Opto-prop-3], the Ki at β1-AR [1] (Ki at β1-AR, trans-isomer) was under 13 nM. Besides, the “selectivity β1-AR over β2-AR” value at β1-AR [1] (both isomers) was at least 10 fold. Besides, on β1-AR [1], the “fold Ki trans vs PSScis at β1-AR” value is 18 fold and the “Active state at β1-AR” value is “trans”. This compound had a Ki at β1-AR [1] (setting [10]) of 200 nM. The compound also showed an inhibitory constant (Ki) at β1-AR [1] (setting [11]) of 12.6 nM. Also, the “t1/2 20°C (thermal relaxation of cis-isomer)” value in data set [2] is over 240 h. Further, in data set [3], the λmax cis is 429 nm and the λmax trans was 347 nm. Moreover, in data set [4], the “PSScis (% cis-isomer)” value was found to be 93.8 ± 0.6 % cis-isomer and the “PSStrans (% cis-isomer)” value came to 21.5 ± 0.1 % cis-isomer. The “trans-content at PSStrans” value in [4] (434 nm) stood at 78.5%. Moreover, on β2-AR [5], the “fold Ki trans vs PSScis at β2-AR” value is 2.6 fold and the “Active state at β2-AR” value is on record as “cis”. Further, at β2-AR [5] (setting [12]), affinity was put at a Ki of 3980 nM. Moreover, at β2-AR [5] (setting [13]), the Ki was 10000 nM.
`CCCc1ccccc1OCC(O)CNC(C)C` (stereo not drawn) [[3H]dihydroalprenolol, dihydroalprenolol]: on β2-AR [6], the “Bmax, β2-AR membranes” value is 33 ± 19 pmol/mg. Further, the “Bmax, β1-AR membranes” value at β1-AR [7] is 56 ± 16 pmol/mg.
In the case of `CC(C)NCC(O)COc1ccccc1/N=N\c1ccccc1` (stereo not drawn) [cis-Opto-prop-1], on β2-AR [5], the “selectivity in binding β2-AR over β1-AR” value came to 21 fold.
On to `CC(C)NCC(O)COc1cccc(/N=N\c2ccccc2)c1` (stereo not drawn) [cis-Opto-prop-2], for which the “effect on isoprenaline-enhanced contractility” value in data set [8] is on record as “attenuated”. The “increase in β2-AR affinity upon 360 nm illumination” value on β2-AR [5] (cis vs trans) is recorded as about 3 log-units. The “selectivity in binding β2-AR over β1-AR” value at β2-AR [5] came out at 78 fold.
Consider `CC(C)NCC(O)c1ccc(O)c(O)c1` (stereo not drawn) [isoprenaline, reference compound], for which the “effect on sarcomere shortening” value in data set [8] (15 nM) was “further increased the shortening of the sarcomeres”.
For the compound `CC(C)NCC(O)COc1cccc(/N=N/c2ccccc2)c1` (stereo not drawn) [trans-Opto-prop-2], the IC50 on β2-AR [9] is 1000 nM. Besides, in [8], the “effect on isoprenaline-enhanced contractility” value is “not”. Further, on β2-AR [5], the “fold Ki trans vs PSScis at β2-AR” value was 587 fold.
`CC(C)NCC(O)COc1ccc(/N=N/c2ccccc2)cc1` (stereo not drawn) [trans-Opto-prop-3]: at β1-AR [1] (trans-isomer), the “selectivity in binding affinity β1-AR over β2-AR” value was found to be 813 fold.

The values are drawn from publication PMC9436767, “Optical control of the β2-adrenergic receptor with opto-prop-2: A cis-active azobenzene analog of propranolol” (iScience, 2022).
